One data set concerns MCF-7 cells. As to the kind of experiment: Cell proliferation assay in MCF-7 breast cancer cells. Format: cell-based. To be noted: Homo sapiens, MCF7, 168 h; MCF-7, 7 days of culture with analog, Coulter count; read-out: IC50, concentration causing 50% reduction in MCF-7 cell growth in culture. The method, then: MCF-7 cells are human mammary carcinoma cells that are positive for estrogen receptors. The potential activity of vitamin D3 analogs against breast cancer was assessed from inhibition of proliferation of MCF-7 cells in culture.
MCF-7 cells were plated at 9000 cells/well in 24-well plates and incubated at 37° C. in 5% CO2/95% air in Dulbecco's Modified Eagle Medium containing 10% fetal bovine serum, 700 nM insulin, 2 mM glutarnine, 0.1 mM MEM non-essential amino acids and 1 mM sodium pyruvate. Stock solutions of vitamin D3 analogs were prepared at a concentration of 10 mM in absolute ethanol and stored at −20° C. under argon. Four days after plating, the number of MCF-7 were counted by removing the medium in 8 wells, rinsing the cells with 0.5 ml PBS without Ca/Mg and then incubating the cells with 0.3 ml of trypsin-EDTA. After 15 min., the trypsinization was stopped by adding 0.3 ml of medium. 0.2 ml aliquot was transferred from each well into dilu-vials containing 10 ml isoton and the number of cells were counted on Coulter Counter™ (Coulter, Miami, Fla.).
MCF-7 cells in the remaining wells were refed with either control medium or medium containing varying concentrations of the vitamin D3 analog. After a further 7 days of culture, the number of MCF-7 cells in each well was assessed by removing the medium, rinsing the cells with 0.5 ml PBS without Ca/Mg and then incubating the cells with 0.5 ml of trypsin-EDTA for 15 min. The trypsinization was stopped by adding 0.5 ml of medium and 0.1 ml aliquot from each well was transferred into dilu-vials containing 10 ml isoton and the number of cells were counted on Coulter Counter™.

The next data set deals with ZR-75 cells. Kind of data set: Cell proliferation assay in ZR-75 breast cancer cells (MTT). Format: cell-based. The settings on record: Homo sapiens, ZR75, 240 h, ZR-75, 10 days of culture with analog, read-out: IC50, concentration corresponding to half-maximal reduction in 570 nm absorbance. As to the method: ZR-75 cells are human mammary carcinoma cells that are positive for estrogen receptors. The potential activity of vitamin D3 analogs against breast cancer was assessed from inhibition of proliferation of ZR-75 cells in culture.
ZR-75 cells were plated at 12,500 cells/well in 24-well plates and incubated at 37° C. in 5% CO2/95% air in RPMI medium containing 10% fetal bovine serum and 2 mM L-glutamine. Stock solutions of vitamin D3 analogs were prepared at a concentration of 10 mM in absolute ethanol and stored at −20° C. under argon. One day after plating, ZR-75 cells were refed with either control medium or medium containing varying concentrations of the vitamin D3 analog.

The subject of data set [1] is ovariectomized (Ovx) rats. As to the kind of experiment: Bone anabolism in the ovariectomized rat. Format: in vivo. Also noted: Urine Calcium/Creatinine (6th Week): unit not given here. The settings on record: for Whole Femur BMD: weeks 3-6 post-ovariectomy. An excerpt: Three month old rats are ovariectomized (Ovx) and administered either 1,25-dihydroxy vitamin D3 (vit. D in Table) or one of the compounds of the present invention once a day by mouth starting at 3 weeks post-ovariectomy and continuing until final sacrifice at 6 weeks postovariectomy. Control groups, both sham (rats that were not ovariectomized) and Ovx, received vehicle only. Blood and urine samples were collected twice, at 4 weeks post-ovariectomy and again at the 6 week mark and the amount of serum and urine calcium was determined. The final femoral calcium was determined upon sacrifice 6 weeks post-ovariectomy.
The bone mineral density of the right femur was determined by using a High Resolution Software Package on a QDR-1000W Bone Densitometer™ (Hologic, Walthan, Mass.). The animals were scanned by placing them on a scanning block in a supine position such that the right leg was perpendicular to the main body and the tibia was perpendicular to the femur. The increase in the bone mineral density and the amount of calcium in the urine and the serum for some of the compounds of this invention in this assay are given in the table below: […]

The test system of data set [2] is rats with secondary hyperparathyroidism due to renal failure. As to the kind of experiment: Secondary hyperparathyroidism in the rat renal insufficiency model (7/8 nephrectomy). In kind it is in vivo. The settings on record: 7/8 nephrectomized rats, 0.1 μg/kg/day oral, seven days; for PTH T=1-T=0: change in serum PTH; for Final Ca Levels: serum calcium. As to the method: Female sprague Dawley rats were anesthetized, their right kidney removed and 2-3 branches of the left renal artery were ligated to achieve 7/8 nephrectomy. They were placed on a high phosphorous diet (0.06% Ca and 0.08 phosphorous). Approximately 3-6 weeks after surgery, rats were bled to screen serum PTH levels and rats with PTH levels between 100-500 pg/ml were selected for the study.
There was a pre-bleed (T=0) and each group was dosed daily for seven days by oral […] with either the compound of Formula (I) (0.1 μg/kg/day), vehicle control or 1,25-(OH)2 vitamin D3 positive control. Compounds were predissolved in ethanol and diluted with vehicle (Miglyol 812) followed by evaporation of the ethanol.
After the last day of dosing, the animals were bled again (T=1) and sacrificed. Serum PTH assays were done with Nichols Institute Diagnostic Kit #40-2240. Serum calcium assays were done with Sigma Diagnostic Kit #587 with o-cresophthalein. Serum creatinine assays were done with Sigma Diagnostic Kit #1600-320 with ammonium molybdate.

The subject of data set [3] is women with postmenopausal osteoporosis. The settings on record: cited from earlier work.

pIC50: −log10 of the molar value. Where “and” joins values, the source holds several entries; their conditions need not be identical. Identical values can stand only once.

Consider `C=C1/C(=C\C=C2/CCC[C@]3(C)[C@@H](C4(C/C=C\C(O)(C(F)(F)F)C(F)(F)F)CC4)CC[C@@H]23)C[C@@H](O)C[C@@H]1O` [compound 5, 1,25-dihydroxy-23-(Z)-ene-26,27-hexafluoro-20,21,28-cyclopropyl-cholecalciferol], for which the values for the pIC50 in the data set on MCF-7 cells and in the data set on ZR-75 cells were 10.52 and 10.00, respectively.
For `CC(C)(O)C#CCC1([C@H]2CC[C@H]3/C(=C/C=C4C[C@@H](O)C[C@H](O)C4)CCC[C@]23C)CC1` [compound 2, 1,25-dihydroxy-23-yne-20,21,28-cyclopropyl-19-nor-cholecalciferol] the same measures were 9.52 and 9.05.
The like results for `C[C@]12CCC/C(=C\C=C3C[C@@H](O)C[C@H](O)C3)[C@@H]1CC[C@@H]2C1(C/C=C\C(O)(C(F)(F)F)C(F)(F)F)CC1` [compound 6, 1,25-dihydroxy-23-(Z)-ene-26,27-hexafluoro-20,21,28-cyclopropyl-19-norcholecalciferol] were, in that order, 10.52 and 10.00.
With `C=C1/C(=C\C=C2/CCC[C@]3(C)[C@@H](C4(CC#CC(C)(C)O)CC4)CC[C@@H]23)C[C@@H](O)C[C@@H]1O` [compound 1, 1,25-dihydroxy-23-yne-20,21,28-cyclopropyl-cholecalciferol], in the data set on MCF-7 cells, the pIC50 was 9.30.
In the case of `C=C1/C(=C\C=C2/CCC[C@]3(C)[C@@H]([C@H](C)CCCC(C)(C)O)CC[C@@H]23)C[C@@H](O)C[C@@H]1O` [1,25-di(OH)-cholecalciferol, 1,25-dihydroxy-cholecalciferol, reference compound], the “Serum Calcium (6th Week)” value in data set [1] (0.200 μg/kg/day by mouth, listed as Vit D) is 9.49 mg/dL and 10.65 mg/dL. In addition, the pIC50 with MCF-7 cells was 6.83. The pIC50 in the data set with ZR-75 cells was 7.89. In addition, in data set [2], the “PTH T=1-T=0” value is -18 pg/mL and the Final Ca Levels came out at 9.75 mg/dL. In addition, the “lower rate of new vertebral fractures compared with elemental calcium 1000 mg/day” value in data set [3] (mild to moderate postmenopausal osteoporosis, 0.25 microgram twice daily, after 3 years) is recorded as 3 fold. Further, the tolerability result in data set [3] (overall) is recorded as “well tolerated”. In addition, the steroid-induced bone loss entry in data set [3] (patients starting prednisone or prednisolone, 0.5 to 1.0 micrograms/day plus calcium 1000 mg/day, with or without calcitonin) was “prevented steroid-induced bone loss”.
Consider `C=C1/C(=C\C=C2/CCC[C@]3(C)[C@@H](C4(CC#CC(O)(C(F)(F)F)C(F)(F)F)CC4)CC[C@@H]23)C[C@@H](O)C[C@@H]1O` [Cpd #3, 1,25-dihydroxy-23-yne-26,27-hexafluoro-20,21,28-cyclopropyl-cholecalciferol], for which, in data set [1] (0.010 μg/kg/day by mouth), the “Serum Calcium (6th Week)” value was found to be 10.25 mg/dL, the “Urine Calcium/Creatinine (6th Week)” value is listed as 0.83 and the Whole Femur BMD was determined as 0.24 g/cm². Besides, the pIC50 in the data set on MCF-7 cells is 10.52. Besides, the pIC50 with ZR-75 cells was 11.00. In addition, in data set [2], the “PTH T=1-T=0” value is -70 pg/mL and the Final Ca Levels worked out at 10.7 mg/dL.
Consider `C[C@]12CCC/C(=C\C=C3C[C@@H](O)C[C@H](O)C3)[C@@H]1CC[C@@H]2C1(CC#CC(O)(C(F)(F)F)C(F)(F)F)CC1` [Cpd #4, 1,25-dihydroxy-23-yne-26,27-hexafluoro-20,21,28-cyclopropyl-19-norcholecalciferol], for which, in data set [1] (0.005 μg/kg/day by mouth), the “Serum Calcium (6th Week)” value turned out to be 8.94 mg/dL, the “Urine Calcium/Creatinine (6th Week)” value is reported as 0.60 and the Whole Femur BMD was 0.241 g/cm². In addition, the pIC50 in the data set on MCF-7 cells was 10.30. Also, the pIC50 in the data set with ZR-75 cells is 9.82. For the same molecule, in data set [2], the “PTH T=1-T=0” value is -137 pg/mL and the Final Ca Levels came out at 10.1 mg/dL.

Source of the values: US6492353B1, “1,3-dihydroxy-20,20-cycloalkyl-vitamin D3analogs” (Syntex LLC, priority 1997, dated 2002).
